# Read-outs that look alike come from different tables or passages of the source. Non-standard residues stand in square brackets, D forms with d. Residues, ends and D or L forms follow the SMILES beside them.
# Columns and labels:
# bombesin/GRP receptor [1] = molecular target: T1, bombesin/GRP receptor (Mus musculus, UniProt P21729); test: 125I-GRP binding to membrane preparations of Swiss 3T3 cells; parameters: species or system murine
# T1 construct: Membrane protein (150 μg) prepared from Swiss 3T3 cells as described above; endogenous in cells; host or cells: Swiss 3T3 cells; membrane-enriched fraction prepared with 5 mM Mg2+
# Procedure: Membrane preparation: Cultures in roller bottles were washed twice with 150 ml phosphate buffered saline (PBS) (0.14M NaCl, 5 mM KCl, 0.01M Na2 HPO4, 1.8 mM KH2 PO4; pH 7.2) at room temperature. The cells were then harvested at 4° C. by scraping into ice cold PBS containing 5 mM MgCl2, 1 mM [ethylenebis(oxyethylenenitrilo)]tetraacetic acid (EGTA), 1 mg/ml bacitracin, 10 ug/ml aprotonin, 1 mg/ml soybean trypsin inhibitor and 50 μM phenylmethylsulphonyl fluoride. All subsequent steps were carried out at 4° C. The cells were pelleted by centrifugation at 750 x g for 10 minutes and resuspended 5×10^6 /ml in solution A containing 50 mM 4-(2-Hydroxyethyl)-1-piperazineethanesulfonic acid (Hepes), 5 mM MgCl2, 1 mM EGTA, 1 mg/ml bacitracin, 10 μg/ml aprotonin, 1 mg/ml soybean trypsin inhibitor and 50 μM phenylmethylsulfonyl fluoride, adjusted to pH 7.4 with NaOH at 4° C. Cells were then disrupted using a Dounce homogeniser (A pestle) 75 strokes. The homogenate was centrifuged at 500 x g for 10 minutes to remove nuclear material and intact cells and the supernatant was centrifuged again at 30000 x g for 30 minutes. The resulting pellet, representing a membrane-enriched preparation was resuspended at a protein concentration of 5 to 10 mg/ml in solution A and stored in liquid nitrogen. For experiments, membranes were thawed and diluted to a concentration of 1 mg/ml with solution A.
# Receptor binding assay: Binding assays were carried out in a total volume of 100 ul in binding medium containing 50 mM Hepes, 5 mM MgCl2, 1 mg/ml bacitracin and 1% bovine serum albumin (BSA), adjusted to pH 7.4 with NaOH, unless otherwise indicated. […] Non-specific binding was subtracted from the total binding to obtain specific binding. The membranes were incubated for either 10 minutes at 37° C. or 30 minutes: at 15° C. as indicated.
# The binding reactions were terminated at the specified times by rapid filtration on GF/B glass fibre filters (Whatmann, 1.0 μm pore size). Each filter was washed five times with 5 ml of PBS containing 1% BSA at 4° C. (15 s total time) using a Millipore filtration apparatus. Before the addition of membranes the filters were soaked for 24 hours in 5% polyethylenimine at 4° C. and washed with 5 ml of PBS containing 1% BSA immediately prior to use. […] Radioactivity was determined with a Beckmann γ-counter.
# When 1n[(Beq - Bt)/(BoLo - Beq Bt)]is plotted as a function of time k1 can be determined from the slope by the following relation k1 =slope x [Beg/(Beg^2 - BoLo)](36) where Bo and Lo are the initial concentrations of receptor and ligand respectively. Bt is the concentration of receptor-ligand complex at time t and Beg is its concentration at equilibrium. Equation (1) takes into account the decrease in free ligand concentration that occurs during the binding reaction.
# The first order rate constant of dissociation was determined from the slope of the line obtained by plotting ln(Bt/Beg) as a function of time.
# The reactions were terminated and specific binding determined as described in "Experimental Procedures".
# Mr 75,000-85,000 protein = molecular target: T2, Mr 75,000-85,000 protein (Mus musculus, UniProt P21729); test: Chemical cross-linking (EGS) of 125I-GRP to the Mr 75,000-85,000 protein in Swiss 3T3 membranes; assay type: binding, murine
# T2 construct: Membrane protein (150 μg) prepared from Swiss 3T3 cells as described above; endogenous in cells; host or cells: Swiss 3T3 cells; membrane-enriched fraction prepared with 5 mM Mg2+
# Procedure: BSA was omitted from all solutions used in the cross-linking studies. At the end of the incubation the membranes were centrifuged at 1000 rpm for 1 minute in a MSE microfuge at room n temperature. The pellets were then resuspended in cross-linking medium containing 4 mM of the cross-linking reagent (EGS) and incubated at 37° C. or 15° C. for 5 minutes or 15 minutes respectively. The reaction was terminated by centrifugation for 1 minute followed by one wash with cross-linking medium and centrifugation. Samples were solubilised in 0.20 ml of 2× sample buffer, (0.2 M Tris-HCl pH 6.8, 10% (w/v) glycerol, 6% sodium dodecyl sulphate (SDS) (w/v), 4% β-mercaptoethanol (v/v), and 2 mM EDTA), immediately heated to 100° C. for 10 minutes and analysed by one dimensional electrophoresis.
# SDS-Polyacrylaaide Gel glectrophoresis: Slab gel electrophoresis was performed using 8% acrylamide in the separating gel and 4% in the stacking gel and 0.1% SDS (37). After electrophoresis gels were stained, desrained and dried down onto paper for autoradiography with Fuji x-ray film. Dried gels were exposed for 2-4 days at -70° C. Autoradiograms were scanned using an LKB ultrascan XL densitometer; and the incorporation of radioactivity into the Mr 75,000-85,000 band was quantified using the Ultroscan XL internal digital integrator.
# Following incubation at 37° C. for 10 minutes the membranes were pelleted by centrifugation and chemical cross-linking carried out as described in "Experimental Procedures" using 4 mM EGS. The samples were analyzed by SDS-PAGE and scanning densitometry of the autoradiograms as described in "Experimental Procedures".
# Swiss 3T3 cells [2] = conditions: references 4,12,13; cited from earlier work
# [3] = test system: small cell lung cancer (SCLC) cell lines; test: Growth in vitro of small cell lung cancer (SCLC) cell lines; conditions: 5 of 5 cell lines tested: H69, H82, H128, H417 and UCH25
# Swiss 3T3 cells [4] = test system: Swiss 3T3 cells
# vasopressin receptor = molecular target: T3, vasopressin receptor (Mus musculus, UniProt Q62463); conditions: references 4,12,13; cited from earlier work
# T3 construct: endogenous in cells; host or cells: Swiss 3T3 cells
# bombesin/GRP receptor [5] = molecular target: T1, bombesin/GRP receptor; conditions: previously published; cited from earlier work
# [6] = addition at 1μM, 0.5 nM 125I-GRP, 37° C., 10 minutes, None 305 ± 9, mean±SEM, n=3
# [7] = 10 min, read-out: 125I-GRP affinity labelling of the Mr 75,000-85,000 protein
# [8] = 0.5 nM 125I-GRP, 15° C., 30 minutes
# T2 sequence (P21729 whole entry): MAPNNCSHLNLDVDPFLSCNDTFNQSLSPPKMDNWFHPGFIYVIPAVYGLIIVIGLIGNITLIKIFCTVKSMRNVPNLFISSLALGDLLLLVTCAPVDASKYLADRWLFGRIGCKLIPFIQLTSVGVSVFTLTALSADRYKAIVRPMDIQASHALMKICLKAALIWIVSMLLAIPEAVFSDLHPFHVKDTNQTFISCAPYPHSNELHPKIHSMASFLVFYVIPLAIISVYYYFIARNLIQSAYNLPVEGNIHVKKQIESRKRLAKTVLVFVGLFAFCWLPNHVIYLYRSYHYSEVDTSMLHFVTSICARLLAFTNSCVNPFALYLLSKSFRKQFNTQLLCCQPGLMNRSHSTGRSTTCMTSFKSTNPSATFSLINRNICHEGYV
# T1 sequence (P21729 whole entry): as above
# T3 sequence (Q62463 whole entry): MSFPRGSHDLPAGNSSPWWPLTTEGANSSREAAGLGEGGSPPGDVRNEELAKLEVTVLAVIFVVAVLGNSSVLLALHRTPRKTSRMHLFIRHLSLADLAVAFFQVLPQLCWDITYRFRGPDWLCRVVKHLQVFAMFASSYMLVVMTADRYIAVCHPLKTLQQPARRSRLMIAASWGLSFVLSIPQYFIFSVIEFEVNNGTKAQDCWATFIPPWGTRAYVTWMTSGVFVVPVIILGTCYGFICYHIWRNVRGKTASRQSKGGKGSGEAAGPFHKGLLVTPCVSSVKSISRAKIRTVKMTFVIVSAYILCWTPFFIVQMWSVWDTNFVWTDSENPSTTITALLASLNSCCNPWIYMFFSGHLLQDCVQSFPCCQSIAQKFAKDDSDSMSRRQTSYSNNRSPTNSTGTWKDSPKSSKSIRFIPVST
compound,measurement,setting,value
"C[C@H](N)C(=O)NCC(=O)N[C@H]1CSSC[C@@H](C(=O)O)NC(=O)[C@H](CO)NC(=O)[C@H]([C@@H](C)O)NC(=O)[C@H](Cc2ccccc2)NC(=O)[C@H]([C@@H](C)O)NC(=O)[C@H](CCCCN)NC(=O)[C@H](Cc2c[nH]c3ccccc23)NC(=O)[C@H](Cc2ccccc2)NC(=O)[C@H](Cc2ccccc2)NC(=O)[C@H](CC(N)=O)NC(=O)[C@H](CCCCN)NC1=O [Somatostatin, somatostatin]",specific binding of 125I-GRP to membranes,bombesin/GRP receptor [1]; [6],308 ± 8 fmole/mg protein
EGF: epidermal growth factor,"125I-GRP affinity labelling of the Mr 75,000-85,000 protein","Mr 75,000-85,000 protein; addition at 40 nM, 0.5 nM 125I-GRP, 37° C., 10 minutes, None 100",108 ± 1 % of maximum
same,specific binding of 125I-GRP to membranes,"bombesin/GRP receptor [1]; addition at 40 nM, 0.5 nM 125I-GRP, 37° C., 10 minutes, None 305 ± 9",305 ± 6 fmole/mg protein
vasoactive intestinal peptide [VIP],specific binding of 125I-GRP to membranes,bombesin/GRP receptor [1]; [6],353 ± 10 fmole/mg protein
CSCC[C@H](NC(=O)[C@H](Cc1ccccc1)NC(=O)[C@H](Cc1cnc[nH]1)NC(=O)CNC(=O)[C@@H](NC(=O)[C@H](C)NC(=O)[C@H](Cc1c[nH]c2ccccc12)NC(=O)[C@H](CC(C)C)NC(=O)[C@H](CC(N)=O)NC(=O)CN)[C@@H](C)O)C(N)=O [neuromedin B],remaining activity at 1 µM,"Mr 75,000-85,000 protein; [7]",7 ± 2%
same,IC50,bombesin/GRP receptor [1],0.18 µM
"CC(C)C[C@H](NC(=O)[C@H](CC(C)C)NC(=O)[C@@H](Cc1c[nH]c2ccccc12)NC(=O)[C@H](Cc1ccccc1)NC(=O)[C@@H](Cc1c[nH]c2ccccc12)NC(=O)[C@H](CCC(N)=O)NC(=O)[C@@H](Cc1ccccc1)NC(=O)[C@@H]1CCCN1C(=O)[C@H](CCCCN)NC(=O)[C@@H]1CCCN1C(=O)[C@H](N)CCCN=C(N)N)C(N)=O [antagonist D, D-Arg-Pro-Lys-Pro-D-Phe-Gln-D-Trp-Phe-D-Trp-Leu-Leu-NH2] (H-[dR]PKP[dF]Q[dW]F[dW]LL-NH2)",IC50,bombesin/GRP receptor [1]; [8],7 µM
CSCC[C@H](NC(=O)[C@H](CC(C)C)NC(=O)[C@H](Cc1cnc[nH]1)NC(=O)CNC(=O)[C@@H](NC(=O)[C@H](C)NC(=O)[C@H](Cc1c[nH]c2ccccc12)NC(=O)[C@H](CCC(N)=O)NC(=O)[C@H](CC(N)=O)NC(=O)CNC(=O)[C@H](CC(C)C)NC(=O)[C@H](CCCN=C(N)N)NC(=O)[C@H](CCC(N)=O)NC(=O)[C@@H]1CCC(=O)N1)C(C)C)C(N)=O [bombesin],remaining activity at 0.1 µM,"Mr 75,000-85,000 protein; [7]",5 ± 1%
same,specific binding of 125I-GRP to membranes,bombesin/GRP receptor [1],7 ± 0.2 fmole/mg protein
substance K,specific binding of 125I-GRP to membranes,bombesin/GRP receptor [1]; [6],314 ± 5 fmole/mg protein
"CC(C)C[C@H](NC(=O)[C@H](CC(C)C)NC(=O)[C@@H](Cc1c[nH]c2ccccc12)NC(=O)[C@H](Cc1ccccc1)NC(=O)[C@@H](Cc1c[nH]c2ccccc12)NC(=O)[C@H](CCC(N)=O)NC(=O)[C@H](CCC(N)=O)NC(=O)[C@@H]1CCCN1C(=O)[C@H](CCCCN)NC(=O)[C@H]1CCCN1C(=O)[C@H](N)CCCNC(=N)N)C(N)=O [antagonist A, D-Arg-D-Pro-Lys-Pro-Gln-Gln-D-Tro-Phe-D-Trp-Leu-Leu-NH2] (H-[dR][dP]KPQQ[dW]F[dW]LL-NH2)",IC50,bombesin/GRP receptor [1]; [8],38 µM
same,inhibition of vasopressin-stimulated DNA synthesis,Swiss 3T3 cells [2],inhibit
same,concentrations effective in inhibiting growth of SCLC,[3],50 to 150 µM
same,IC50,Swiss 3T3 cells [4],90 µM
same,inhibition of [3H]vasopressin binding,vasopressin receptor,inhibit
CSCC[C@H](NC(=O)[C@H](CC(C)C)NC(=O)[C@H](Cc1cnc[nH]1)NC(=O)CNC(=O)[C@@H](NC(=O)[C@H](C)NC(=O)[C@@H](N)Cc1c[nH]c2ccccc12)C(C)C)C(N)=O [bombesin (8-14)],remaining activity at 10 µM,"Mr 75,000-85,000 protein; [7]",5 ± 2%
same,IC50,bombesin/GRP receptor [1],4 µM
litorin,"125I-GRP affinity labelling of the Mr 75,000-85,000 protein","Mr 75,000-85,000 protein; addition at 100 nM, 0.5 nM 125I-GRP, 37° C., 10 minutes, None 100",3 ± 1 % of maximum
same,inhibition of specific binding of 125I-GRP to membrane preparations,bombesin/GRP receptor [1]; concentration-dependent manner,inhibited
"CSCC[C@H](NC(=O)[C@H](CC(C)C)NC(=O)CNC(=O)[C@H](Cc1ccccc1)NC(=O)[C@H](Cc1ccccc1)NC(=O)[C@H](CCC(N)=O)NC(=O)[C@H](CCC(N)=O)NC(=O)[C@@H]1CCCN1C(=O)[C@H](CCCCN)NC(=O)[C@@H]1CCCN1C(=O)[C@@H](N)CCCNC(=N)N)C(N)=O [substance P, Arg-Pro-Lys-Pro-Gln-Gln-phe-phe-Gly-Leu-Met-NH2]",remaining activity at 1 µM,"Mr 75,000-85,000 protein; 10 min, addition at 1μM, 0.5 nM 125I-GRP, 37° C., 10 minutes, None 100, read-out: 125I-GRP affinity labelling of the Mr 75,000-85,000 protein",93 ± 2%
same,specific binding of 125I-GRP to membranes,bombesin/GRP receptor [1]; [6],305 ± 4 fmole/mg protein
same,inhibition of binding of [125I]GRP to Swiss 3T3 cells,bombesin/GRP receptor [5],neither inhibits
Insulin: insulin purchased from Sigma,"125I-GRP affinity labelling of the Mr 75,000-85,000 protein","Mr 75,000-85,000 protein; addition at 1.5 μM, 0.5 nM 125I-GRP, 37° C., 10 minutes, None 100",113 ± 3 % of maximum
same,specific binding of 125I-GRP to membranes,"bombesin/GRP receptor [1]; addition at 1.5 μM, 0.5 nM 125I-GRP, 37° C., 10 minutes, None 305 ± 9",332 ± 6 fmole/mg protein
PDGF: Recombinant platelet derived growth factor c-sis,"125I-GRP affinity labelling of the Mr 75,000-85,000 protein","Mr 75,000-85,000 protein; addition at 15 nM, 0.5 nM 125I-GRP, 37° C., 10 minutes, None 100",104 ± 1 % of maximum
same,specific binding of 125I-GRP to membranes,"bombesin/GRP receptor [1]; addition at 15 nM, 0.5 nM 125I-GRP, 37° C., 10 minutes, None 305 ± 9",341 ± 9 fmole/mg protein
"CCCC(=O)O[C@@H]1[C@@H](C)[C@@]2(O)[C@@H](C=C(CO)C[C@]3(O)C(=O)C(C)=C[C@@H]23)[C@@H]2C(C)(C)[C@]12OC(=O)CCC [PBt2, phorbol 12,13-dibutyrate]","125I-GRP affinity labelling of the Mr 75,000-85,000 protein","Mr 75,000-85,000 protein; addition at 400 nM, 0.5 nM 125I-GRP, 37° C., 10 minutes, None 100",111 ± 2 % of maximum
same,specific binding of 125I-GRP to membranes,"bombesin/GRP receptor [1]; addition at 400 nM, 0.5 nM 125I-GRP, 37° C., 10 minutes, None 305 ± 9",305 ± 9 fmole/mg protein
"NC(=O)CC[C@@H]1NC(=O)[C@H](Cc2ccccc2)NC(=O)[C@H](Cc2ccc(O)cc2)NC(=O)[C@@H](N)CSSC[C@@H](C(=O)N2CCC[C@H]2C(=O)N[C@@H](CCCN=C(N)N)C(=O)NCC(N)=O)NC(=O)[C@H](CC(N)=O)NC1=O [Vasopressin, vasopressin]",remaining activity at 1 µM,"Mr 75,000-85,000 protein; [7]",102 ± 1%
same,specific binding of 125I-GRP to membranes,bombesin/GRP receptor [1]; [6],353 ± 10 fmole/mg protein

# — patent publication US5434132A, “Neuropeptide antagonists” (Imperial Cancer Research Technology, Ltd., priority 1988, dated 1995)
